# Patent US11633392B2 (priority 2016, dated 2023)
# Marks after values point to notes of the source that are not given here.
# Tests used:
# human opioid κ receptor = target: T1, human opioid κ receptor (Homo sapiens, UniProt P41145); assay: Opioid receptor function test (Lance Ultra cAMP Kit), κ receptor; type: cell-based; conditions: maximum reaction not reached; maximum concentration 10 μM; U-69593 = 100%
# T1 construct: host or cells: CHO cells
# Procedure: Opioid Receptor Function Test
# The functional activities of the compounds provided by the present invention on the μ, δ, and κ opioid receptors were investigated.
# The test was performed by using Lance Ultra cAMP Kit (PerkinElmer) according to a method predetermined for the kit. In the evaluation of the agonistic activity, CHO cells expressing each of the human opioid receptors (δ, μ, and κ, accession numbers and catalog numbers are mentioned below) and 10 μM of each test compound were reacted for 30 minutes in an assay buffer (1× HBSS, […], pH 7.4, […] (isobutylmethylxanthine), 7.5% BSA) in the presence of forskolin. Subsequently, the cAMP detection reagent included in the kit was added, and 1 hour afterward, time-resolved fluorescence measurement was performed by using the EnVision plate reader (PerkinElmer). The test compounds and the control drugs (δ: SNC80, μ: DAMGO, κ: U-69593) were evaluated in a concentration range of 10^−12 to 10^−5 M, a dose-response curve of each test compound was obtained from the fluorescence values at 665 nm, and EC50 value and the Emax value were calculated. The Emax value was calculated as a ratio of the maximum reaction of the test compound to the maximum reaction of each control drug, which is taken as 100%.
# • δ: Catalog No. CT4607, Accession No. NM_000911.2 • μ: Catalog No. CT4605, Accession No. NM_000914 • κ: Catalog No. CT4606, Accession No. NM_000912 (ChanTest Corporation)
# C57BL/6N male mice = assay: Mouse elevated plus maze test; type: in vivo; conditions: subcutaneous, 1 mg/kg, 30 minutes before test (FIG. 2)
# Procedure: Mouse Elevated Plus Maze Test
# For the test, 5 to 6 weeks old C57BL/6N male mice were used. On a plus maze apparatus consisting of a wall-less running route (open arm, width 6 cm, length 30 cm) and a running route with a wall (closed arm, width 6 cm, length 30 cm, height of wall 15 cm), and having a height of 40 cm, a mouse was put so as to be directed to the running route with a wall, and allowed to spontaneously enter into the plus maze. Each test substance was dissolved in saline or 0.005 N HCl in saline, and subcutaneously administered on the back 30 minutes before the start of the test. At the time of the start of the test, video recording with a video camera was started, the time at which the mouse entered into the plus maze is considered to be the start of the test, and exploratory behavior was recorded for 5 minutes. On the basis of the video image, staying times in the running routes were determined, and wall-less running route staying time ratio (%) was calculated.
# Wistar male rats = assay: Rat elevated plus maze test; type: in vivo; conditions: oral, 3 mg/kg, 2 hours before test (FIG. 6)
# Procedure: Rat Elevated Plus Maze Test
# Anxiolytic effects of the compounds provided by the present invention were investigated by the rat elevated plus maze test.
# For the test, 7 to 9 weeks old Wistar male rats were used. […] Each test substance was dissolved in a 4.5% aqueous solution of cyclodextrin, and orally administered 2 hours before the start of the test. The test data were automatically analyzed by using video image action analysis software (Smart3.0, PanLab S.L., PanLab), and wall-less running route staying time ratio (%) was calculated.
# hERG potassium channel = target: T2, hERG potassium channel (Homo sapiens, UniProt Q12809); assay: hERG potassium channel inhibition test (automatic patch clamp); type: cell-based; conditions: pH 7.4, hERG-expressing CHO cells, tail current, read-out: hERG channel inhibitory action
# T2 construct: host or cells: CHO cells
# Procedure: hERG (Human Ether-A-Go-Go-Related Gene) Potassium Channel Inhibition Test
# The test was performed with Port-a-Patch automatic patch clump apparatus (Nanion Technologies) using hERG channel-stably expressing CHO cells (purchased from Channelopathy Foundation). The membrane potential of the cells was maintained at −80 mV, then there were applied a depolarization pulse at +20 mV for 1.5 seconds, and a following test pulse at −50 mV for 1.5 seconds at a frequency of 1 time per 10 seconds, and the hERG current was confirmed as a tail current induced by the test pulse. The test compound was dissolved in an extracellular fluid (137 mM NaCl, 4 mM KCl, 1.8 mM CaCl2, 1 mM MgCl2, 10 mM D(+)-glucose, 10 mM HEPES, pH 7.4), and the solution was refluxed at room temperature for 5 minutes. The inhibition ratio was obtained from the ratio of the tail current value observed after the compound was applied based on the tail current value observed before the compound was applied, which was taken as 100%.
# [1] = system: olfactory bulbectomized (OBX) rat; assay: Hyperemotional reaction inhibition test using olfactory bulbectomized (OBX) rat; type: in vivo; conditions: for hyperemotional reactions of the OBX rats compared with the solvent administration group: maintained until day 14
# Source text: Hyperemotional Reaction Inhibition Test Using Olfactory Bulbectomized (OBX) Rat
# According to the method of Saitoh et al. (Saitoh A, Yamada M, Yamada M, Takahashi K, Yamaguchi K, Murasawa H, Nakatani A, Tatsumi Y, Hirose N, and Kamei J: Antidepressant-like effects of the delta-opioid receptor agonist SNC80 ((+)-4-[(alphaR)-alpha-[(2S,5R)-2,5-dimethyl-4-(2-propenyl)-1-piperazinyl]-(3-methoxyphenyl)methyl]-N,N-diethylbenzamide) in an olfactory bulbectomized rat model, Brain Res., 2008, 1208:160-169), OBX rats were prepared by extracting the rat olfactory bulbs, and then breeding the rats in an isolated circumstance. Hyperemotional reaction was evaluated on the day 14 after the surgical operation and before the division into groups, and 2 hours after the administration on the days 1, 4, 7, 10, and 14 of the administration period according to the hyperemotional reaction evaluation criteria prepared by Gomita et al. (Gomita et al., Behavioral pharmacological and electroencephalographical studies of 7-chloro-1-methyl-5-phenyl-1H-1,5-benzodiazepine-2,4-(3H,5H:)-dione (Clobazam), Folia Pharmacologica Japonica, 82, 267 (1983)). The drug was subcutaneously administered once a day continuously over 14 days. As a positive control drug, fluoxetine, which is a selective serotonin reuptake inhibitor (SSRI), was used. As the solvent, a 1% cyclodextrin (CD) was used.
# Metabolic stability test = type: in vitro ADME; conditions: liver microsomes; human hepatic microsomes, 0 to 60 minutes; read-out: metabolic clearance CLint
# Procedure: Human hepatic microsomes and a test substance were reacted for a certain period of time (0 to 60 minutes). The test substance, which was not metabolized in the reaction sample, was measured, and remaining ratio was calculated. The test substance-remaining ratio at the time when the reaction time is 0 hour is taken as 100%. The remaining ratio after incubation was plotted against time as a log-linear plot to obtain a regression line (y=100 e^−kt, k=inclination of straight line: clearance rate constant), and metabolic clearance CLint (mL/min/kg) was calculated by using the following equation. CLint*=k(−min)×52.5(mg MS protein/g liver)×26(g liver/kg)/MS protein (mg MS protein/mL) • *: Davies, B. and Morris T., Physiological parameters in laboratory animals and humans, Pharm. Res., 10(7)1093-1095, 1993 (Test Results)
# T2 sequence (Q12809 whole entry): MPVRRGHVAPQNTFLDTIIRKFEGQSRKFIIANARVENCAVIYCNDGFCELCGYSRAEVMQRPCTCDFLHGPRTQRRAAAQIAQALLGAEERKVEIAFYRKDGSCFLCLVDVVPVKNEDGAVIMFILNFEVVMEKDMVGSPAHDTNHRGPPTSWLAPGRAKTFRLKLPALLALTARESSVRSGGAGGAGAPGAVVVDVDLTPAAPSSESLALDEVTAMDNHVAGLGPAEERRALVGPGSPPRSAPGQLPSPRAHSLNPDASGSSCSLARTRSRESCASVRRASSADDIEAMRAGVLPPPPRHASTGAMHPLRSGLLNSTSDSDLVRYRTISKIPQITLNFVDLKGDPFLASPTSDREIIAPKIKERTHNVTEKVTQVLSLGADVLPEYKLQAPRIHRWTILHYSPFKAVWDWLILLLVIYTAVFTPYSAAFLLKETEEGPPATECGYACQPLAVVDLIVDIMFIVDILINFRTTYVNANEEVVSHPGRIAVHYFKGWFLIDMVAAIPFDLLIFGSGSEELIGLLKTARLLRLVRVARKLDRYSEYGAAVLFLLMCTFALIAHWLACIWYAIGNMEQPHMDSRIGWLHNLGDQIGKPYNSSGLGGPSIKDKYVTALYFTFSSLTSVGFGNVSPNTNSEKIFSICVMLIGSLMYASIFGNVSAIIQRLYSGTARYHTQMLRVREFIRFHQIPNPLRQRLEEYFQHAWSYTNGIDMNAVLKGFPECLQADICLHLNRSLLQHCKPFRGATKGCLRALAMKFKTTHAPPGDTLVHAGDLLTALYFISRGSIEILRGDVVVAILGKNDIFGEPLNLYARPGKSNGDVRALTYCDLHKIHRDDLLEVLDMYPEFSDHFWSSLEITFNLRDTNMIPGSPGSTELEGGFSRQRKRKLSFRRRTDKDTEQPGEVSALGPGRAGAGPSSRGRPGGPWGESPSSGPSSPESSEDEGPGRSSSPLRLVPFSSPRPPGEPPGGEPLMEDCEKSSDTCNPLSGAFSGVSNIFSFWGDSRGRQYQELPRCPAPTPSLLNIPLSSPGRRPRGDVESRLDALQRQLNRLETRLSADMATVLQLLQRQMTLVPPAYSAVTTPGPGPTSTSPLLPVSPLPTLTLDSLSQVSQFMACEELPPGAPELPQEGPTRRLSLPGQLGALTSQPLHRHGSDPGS
# T1 sequence (P41145 whole entry): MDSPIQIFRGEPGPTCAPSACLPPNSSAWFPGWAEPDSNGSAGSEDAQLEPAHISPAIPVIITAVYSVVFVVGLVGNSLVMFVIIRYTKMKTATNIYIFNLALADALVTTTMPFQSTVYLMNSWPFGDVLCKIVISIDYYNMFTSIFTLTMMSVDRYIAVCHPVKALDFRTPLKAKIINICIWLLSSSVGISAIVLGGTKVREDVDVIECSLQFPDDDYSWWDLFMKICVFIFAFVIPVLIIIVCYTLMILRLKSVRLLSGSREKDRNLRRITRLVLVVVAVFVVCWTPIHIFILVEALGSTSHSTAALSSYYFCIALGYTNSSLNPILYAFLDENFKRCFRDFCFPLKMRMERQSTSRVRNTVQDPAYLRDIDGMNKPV
compound,measurement,setting,value
"O=C(c1cccc(=O)[nH]1)N1C[C@H]2C[C@@]34CC[C@@H]1[C@@H]2[C@@]31CCN(CC2CC2)[C@@H]4Cc2ccc(O)cc21 [Example 7, 6-((1S,3aR,5aS,6R,11bR,11cS)-14-(cyclopropylmethyl)-10-hydroxy-2,3,3a,4,5,6,7,11c-octahydro-1H-6,11b-(epiminoethano)-1,5a-methanonaphtho[1,2-e]indole-3-carbonyl)pyridin-2(1H)-one]","κ receptor reaction rate at the maximum concentration (reference value, marked *)",human opioid κ receptor,−0.9* %
same,wall-less running route staying time ratio,C57BL/6N male mice,significantly increased
same,wall-less running route staying time ratio,Wistar male rats,significantly increased
same,"inhibition at 5 min, 10 µM",hERG potassium channel,< 50%
same,hyperemotional reactions of the OBX rats compared with the solvent administration group,"[1]; 0.1 mg/kg s.c. once a day, from the day 4 of the administration period",significantly reduced
same,hyperemotional reactions of the OBX rats relative to sham surgery group,"[1]; 0.1 mg/kg s.c. once a day, on the day 7 of the administration period",restored the condition even to a level comparable to that of the rats of the sham surgery group
same,hyperemotional reactions of the OBX rats compared with the solvent administration group,"[1]; 1 mg/kg s.c. once a day, from the day 1 of the administration period",significantly reduced
same,hyperemotional reactions of the OBX rats relative to sham surgery group,"[1]; 1 mg/kg s.c. once a day, on the day 4 of the administration period",restored the condition even to a level comparable to that of the rats of the sham surgery group
same,CLint scaled,Metabolic stability test,5.6 mL/min/kg
